Experimental data as given in patent publication US8822449B2, “Substituted aminoindanes and analogs thereof, and the pharmaceutical use thereof” (Sanofi, priority 2008, dated 2014).

What follows are compounds tested against T1, sodium-proton exchanger of subtype 3 (NHE3) (Homo sapiens, UniProt P48764) (assay: Recovery of intracellular pH (pHi) after acidification in LAP1 cells stably expressing NHE3 (BCECF fluorescence, FLIPR)). Conditions: LAP1 cells stably expressing NHE3; pH recovery after acidification; range 1 is % inhibition at 10 μM; read-out: Activity range (inhibitory effect on NHE3).
T1 construct: expressed in transfected cells
T1 sequence (P48764 26-834): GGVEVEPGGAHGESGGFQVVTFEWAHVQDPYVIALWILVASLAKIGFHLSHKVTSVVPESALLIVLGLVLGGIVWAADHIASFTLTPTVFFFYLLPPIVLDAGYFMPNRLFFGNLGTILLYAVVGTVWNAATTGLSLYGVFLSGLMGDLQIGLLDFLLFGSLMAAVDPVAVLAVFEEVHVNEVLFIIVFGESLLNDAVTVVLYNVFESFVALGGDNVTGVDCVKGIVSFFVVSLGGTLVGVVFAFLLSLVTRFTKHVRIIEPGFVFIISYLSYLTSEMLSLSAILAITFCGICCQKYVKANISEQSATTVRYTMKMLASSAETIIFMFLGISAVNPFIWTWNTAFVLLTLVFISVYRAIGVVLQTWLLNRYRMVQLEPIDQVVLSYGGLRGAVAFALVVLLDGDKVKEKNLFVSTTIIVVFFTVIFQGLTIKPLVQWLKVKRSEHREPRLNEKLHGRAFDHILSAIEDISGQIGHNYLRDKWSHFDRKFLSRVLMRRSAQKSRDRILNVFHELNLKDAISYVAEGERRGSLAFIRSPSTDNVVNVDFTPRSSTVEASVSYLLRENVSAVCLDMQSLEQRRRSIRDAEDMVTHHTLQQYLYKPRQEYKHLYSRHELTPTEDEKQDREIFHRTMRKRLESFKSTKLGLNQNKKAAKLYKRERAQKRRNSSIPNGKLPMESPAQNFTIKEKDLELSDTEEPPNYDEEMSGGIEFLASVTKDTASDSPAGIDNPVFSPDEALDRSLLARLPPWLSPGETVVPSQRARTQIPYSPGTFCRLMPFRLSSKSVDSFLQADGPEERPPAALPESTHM
Type: cell-based

SMILES	IC50 [nM]	inhibition at 10 µM [%]
CS(=O)(=O)c1ccc(O[C@@H]2c3ccccc3C[C@H]2NC2CCC2)cc1 (racemic) [Example 708, Cyclobutyl-[rac-trans-(1,2)-1-(4-methanesulfonyl-phenoxy)-indan-2-yl]-amine]	1000 to 10000	–
Cc1nnc(C)n1-c1ccc(O[C@H]2c3cc(Cl)cc(F)c3C[C@@H]2N2CC[C@@H](O)C2)cc1 [Example 144, (R)-1-{trans-(1S,2S)-6-chloro-1-[4-(3,5-dimethyl-[1,2,4]triazol-4-yl)phenoxy]-4-fluoroindan-2-yl}pyrrolidin-3-ol]	< 1000	–
N#Cc1ccc(O[C@@H]2c3ccccc3C[C@H]2N2C[C@H]3CNC[C@H]3C2)cc1Cl (racemic) [Example 393, 2-chloro-4-[rac-trans-(1,2)-2-(hexahydropyrrolo[3,4-c]pyrrol-2-yl)indan-1-yloxy]benzonitrile]	1000 to 10000	–
CC(=O)Nc1cccc(O[C@H]2c3cc(Cl)cc(Cl)c3C[C@@H]2N2CCCC2)c1 (racemic) [Example 648, N-[3-(rac-trans-(1,2)-4,6-dichloro-2-pyrrolidin-1-ylindan-1-yloxy)phenyl]acetamide]	1000 to 10000	–
Cc1c(Cl)ccc(O[C@@H]2c3ccccc3C[C@H]2N2C[C@H]3CNC[C@H]3C2)c1Cl (racemic) [Example 4, 2-[rac-trans-(1,2)-1-(2,4-dichloro-3-methylphenoxy)indan-2-yl]octahydropyrrolo[3,4-c]pyrrole]	1000 to 10000	–
CCN(CC)[C@@H]1Cc2ccccc2[C@H]1Oc1ccc2sc(C)nc2c1 (racemic) [Example 625, Diethyl-[rac-trans-(1,2)-1-(2-methylbenzothiazol-5-yloxy)indan-2-yl]amine]	1000 to 10000	–
CC(=O)Nc1cccc(O[C@H]2c3cccc(Cl)c3C[C@@H]2N2CCCC2)c1 (racemic) [Example 649, N-[3-(rac-trans-(1,2)-4-chloro-2-pyrrolidin-1-ylindan-1-yloxy)phenyl]acetamide]	–	20 to 50
CS(=O)(=O)c1ccc(O[C@@H]2c3ccccc3C[C@H]2NCC2CC2)cc1 (racemic) [Example 624, Cyclopropylmethyl-[1-(4-methanesulfonylphenoxy)indan-2-yl]amine]	1000 to 10000	–
CS(=O)(=O)c1ccc(O[C@H]2c3cc(Cl)cc(Cl)c3C[C@@H]2N2CC[C@@H](N3CCCC3)C2)cc1 [Example 99, (R)-1′-[trans-(1S,2S)-4,6-dichloro-1-(4-methanesulfonylphenoxy)indan-2-yl]-[1,3′]bipyrrolidinyl]	< 1000	–
CO[C@@H]1CCN(C2Cc3ccccc3C2Oc2ccc(S(N)(=O)=O)c(Cl)c2Cl)C1 (mixture of isomers) [Example 359, 2,3-dichloro-4-[rac-trans-(1,2)-2-((R)-3-methoxypyrrolidin-1-yl)indan-1-yloxy]benzenesulfonamide]	1000 to 10000	–
CS(=O)(=O)c1ccc(O[C@H]2c3ccccc3C[C@@H]2N2CCCC2)c(Cl)c1Cl (racemic) [Example 263, 1-[rac-trans-(1,2)-1-(2,3-dichloro-4-methanesulfonylphenoxy)indan-2-yl]pyrrolidine]	< 1000	–
CS(=O)(=O)c1ccc(O[C@H]2c3ccccc3C[C@@H]2NCC2CCCC2)cc1 (racemic) [Example 705, Cyclopentylmethyl-[rac-trans-(1,2)-1-(4-methanesulfonyl-phenoxy)-indan-2-yl]-amine]	1000 to 10000	–
Cc1cc(O[C@H]2c3ccccc3C[C@@H]2N2CCCC2)ccc1S(C)(=O)=O (racemic) [Example 271, 1-[rac-trans-(1,2)-1-(4-methanesulfonyl-3-methylphenoxy)indan-2-yl]pyrrolidine]	1000 to 10000	–
Cc1nnc(C)n1-c1ccc(O[C@H]2c3ccccc3C[C@@H]2N2CCCC2)c(C(F)(F)F)c1 [Example 406, 3,5-dimethyl-4-[4-(trans-(1S,2S)-2-pyrrolidin-1-ylindan-1-yloxy)-3-trifluoromethylphenyl]-4H-[1,2,4]triazole]	< 1000	–
CC(=O)Nc1cccc(O[C@@H]2c3ccccc3C[C@H]2N2CCSCC2)c1 (racemic) [Example 642, N-[3-(rac-trans-(1,2)-2-thiomorpholin-4-ylindan-1-yloxy)phenyl]acetamide]	1000 to 10000	–
CN1CCN(c2cccc(O[C@H]3c4cc(Cl)cc(Cl)c4C[C@@H]3N3CCNCC3)c2)C1=O (racemic) [Example 258, 1-[3-(rac-trans-(1,2)-4,6-dichloro-2-piperazin-1-ylindan-1-yloxy)phenyl]-3-methylimidazolidin-2-one]	< 1000	–
c1ccc2c(c1)C[C@@H](N1C[C@H]3CNC[C@H]3C1)[C@@H]2Oc1ccc2cc[nH]c2c1 (racemic) [Example 587, 6-[rac-trans-(1,2)-2-(Hexahydropyrrolo[3,4-c]pyrrol-2-yl)indan-1-yloxy]-1H-indole]	1000 to 10000	–
CC(=O)Nc1cccc(O[C@H]2c3cc(F)cc(Cl)c3C[C@@H]2N2CCCC2)c1 (racemic) [Example 651, N-[3-(rac-trans-(1,2)-4-chloro-6-fluoro-2-pyrrolidin-1-ylindan-1-yloxy)phenyl]acetamide]	1000 to 10000	–
O=C1OCCN1c1ccc(O[C@H]2c3cc(Cl)cc(Cl)c3C[C@@H]2N2CC[C@@H](O)C2)cc1 [Example 429, 3-{4-[trans-(1S,2S)-4,6-dichloro-2-((R)-3-hydroxypyrrolidin-1-yl)indan-1-yloxy]phenyl}oxazolidin-2-one]	1000 to 10000	–

Continued, values first:

IC50 [nM]	inhibition at 10 µM [%]	SMILES
–	20 to 50	N[C@@H]1CCCN([C@H]2CCc3ccccc3[C@@H]2Oc2ccc(C(F)(F)F)cc2)C1 (racemic) [Example 77, (R)-1-[rac-trans-(1,2)-1-(4-trifluoromethylphenoxy)-1,2,3,4-tetrahydronaphthalen-2-yl]piperidin-3-ylamine]
1000 to 10000	–	CC(=O)Nc1cccc(O[C@@H]2c3ccccc3C[C@H]2N2CCC(CN)CC2)c1 (racemic) [Example 688, N-{3-[rac-trans-(1,2)-2-(4-aminomethylpiperidin-1-yl)indan-1-yloxy]phenyl}acetamide]
–	20 to 50	c1ccc2c(c1)CC[C@H](N1CCOCC1)[C@H]2Oc1cccc2ncccc12 (racemic) [Example 570, 5-(rac-trans-(1,2)-2-morpholin-4-yl-1,2,3,4-tetrahydronaphthalen-1-yloxy)quinoline]
–	20 to 50	N[C@H]1CCCN([C@H]2CCc3ccccc3[C@@H]2Oc2ccncc2)C1 (racemic) [Example 191, (S)-1-[rac-trans-(1,2)-1-(pyridin-4-yloxy)-1,2,3,4-tetrahydronaphthalen-2-yl]piperidin-3-ylamine]
1000 to 10000	–	CC(=O)Nc1cccc(O[C@@H]2c3ccccc3C[C@H]2N2CCC(CN)C2)c1 (mixture of isomers) [Example 686, N-{3-[rac-trans-(1,2)-2-(3-aminomethylpyrrolidin-1-yl)indan-1-yloxy]phenyl}acetamide]
–	20 to 50	COc1cc(Cl)cc(O[C@H]2c3ccccc3CC[C@@H]2N2CCC[C@@H](N)C2)c1 (racemic) [Example 54, (R)-1-[rac-trans-(1,2)-1-(3-chloro-5-methoxyphenoxy)-1,2,3,4-tetrahydronaphthalen-2-yl]piperidin-3-ylamine]
1000 to 10000	–	N[C@@H]1CCCN([C@@H]2Cc3ccccc3[C@H]2Oc2cccc(CN3CCCCC3)c2)C1 (racemic) [Example 58, (R)-1-[rac-trans-(1,2)-1-(3-piperidin-1-ylmethylphenoxy)indan-2-yl]piperidin-3-ylamine]
1000 to 10000	–	N#Cc1ccc(O[C@@H]2c3ccccc3C[C@H]2N2CCC[C@@H](N)C2)cc1F (racemic) [Example 522, 4-[rac-trans-(1,2)-2-((R)-3-aminopiperidin-1-yl)indan-1-yloxy]-2-fluorobenzonitrile]
< 1000	–	CC(=O)Nc1cccc(O[C@H]2c3ccccc3C[C@@H]2N2CCCCC2)c1 [Example 663, N-[3-(trans-(1S,2S)-2-piperidin-1-ylindan-1-yloxy)phenyl]acetamide]
1000 to 10000	–	N[C@H]1CCCN([C@H]2CCc3ccccc3[C@@H]2Oc2ccc(-n3cncn3)cc2)C1 (racemic) [Example 171, (S)-1-[rac-trans-(1,2)-1-(4-[1,2,4]triazol-1-ylphenoxy)-1,2,3,4-tetrahydronaphthalen-2-yl]piperidin-3-ylamine]
–	20 to 50	Cc1ccc(O[C@H]2c3ccccc3CC[C@@H]2N2CCC[C@H](N)C2)cc1Cl (racemic) [Example 161, (S)-1-[rac-trans-(1,2)-1-(3-chloro-4-methylphenoxy)-1,2,3,4-tetrahydronaphthalen-2-yl]piperidin-3-ylamine]
–	20 to 50	N[C@@H]1CCCN([C@H]2CCc3ccccc3[C@@H]2Oc2cccc(OC(F)F)c2)C1 (racemic) [Example 56, (R)-1-[rac-trans-(1,2)-1-(3-difluoromethoxyphenoxy)-1,2,3,4-tetrahydronaphthalen-2-yl]piperidin-3-ylamine]
1000 to 10000	–	COCCc1ccc(O[C@@H]2c3ccccc3C[C@H]2N2CCC[C@@H](N)C2)cc1 (racemic) [Example 116, (R)-1-{rac-trans-(1,2)-1-[4-(2-methoxyethyl)phenoxy]indan-2-yl}piperidin-3-ylamine]
